Entries after “also recorded” stand apart in the source; their conditions may differ. Read-outs that look alike come from different tables or passages of the source.

For series [1], the system named is BS1 and BS3 sites. The following applies: cited from earlier work.
Series [2] concerns Aβ plaques. Kind of series: Staining of human AD brain tissue sections. The series is classed as binding. The note with it: person with AD. The procedure:
Staining experiments were performed with human brain tissues. Tissue samples were obtained from the frontal lobe of clinically and neuropathologically well-characterized cases. The neuropathological diagnosis of AD was based on the criteria of the Consortium to Establish a Registry for Alzheimer's Disease (CERAD) (Mirra, S., et al. The Consortium to Establish a Registry for Alzheimer's Disease (CERAD). Part II. Standardization of the neuropathologic assessment of Alzheimer's disease. Neurology 41, 479-486 (1991)) or the National Institute of Aging-Reagan Institute (NIA-RI) (Hyman, B. & Trojanowski, J. Consensus recommendations for the postmortem diagnosis of Alzheimer disease from the National Institute on Aging and the Reagan Institute Working Group on diagnostic criteria for the neuropathological assessment of Alzheimer disease. J Neuropathol Exp Neurol 56, 1095-1097. (1997)). […]
The fluorescent probe (F-AI-183) labels fibrillar amyloid (arrow). The slides were analyzed on a using a Nikon Ti-E PFS inverted microscope equipped with a Nikon 10×0.3 NA Plan APO objective, Prior H117 ProScan flat top linear encoded stage, and Prior Lumen 200PRO illumination system with standard DAPI and FITC filter sets. […] Images were processed and analyzed using the Image J software package (NIH).

In series [3] the target is T1, Aβ plaques (Homo sapiens, UniProt P05067).
T1 construct: from tissue; host or cells: brain of APPsw+/-/PS1 (and APPsw+/-) transgenic mice: sections ex vivo, and live animals for multiphoton imaging
T1 sequence (P05067 672-713 limits assumed): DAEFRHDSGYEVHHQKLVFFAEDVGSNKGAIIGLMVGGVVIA
Kind of series: Ex vivo staining of mouse brain sections. It is filed as binding. The following applies: APPsw+/− mice, 24 months old. The procedure: FIG. 2 illustrates ex vivo staining studies were performed on brain sections (50 μm) of an APPsw^+/−/PS1 mouse (24 months old) and a control WT mouse (BL/6; 24 months old) using well-established procedures. Briefly, tissue sections were immunostained with mouse monoclonal antibody and visualized by donkey-anti-mouse HJ3.4 Aβ monoclonal antibody-Alexa 568 as a positive control. […] By comparison, no staining in WT mice was seen either with F-AI-182 or the antibody indicating the targeting specificity of F-AI-182. The slides were analyzed on a Zeiss LSM 5 PASCAL confocal system coupled to a Zeiss Axiovert 200 microscope.
The slides were analyzed using a Nikon Ti-E PFS inverted microscope equipped with a Nikon 10x 0.3 NA Plan APO objective, Prior H117 ProScan flat top linear encoded stage, and Prior Lumen 200PRO illumination system with standard DAPI and FITC filter sets. The images were acquired using a Photometrics CoolSNAP HQ2 digital camera and MetaMorph microscopy automaton, and imaging software. Images were processed and analyzed using the Image J software package (NIH).

The target in series [4] is T2, preformed Aβ1-42 fibrils (Homo sapiens, UniProt P05067).
T2 construct: preformed Aβ1-42 fibrils
T2 sequence (P05067 672-713 limits assumed): as above
Kind of series: Binding assay with preformed Aβ1-42 fibrils/aggregates in PBS (fluorescence). The source says:
In some embodiments of the present teachings, binding assays to preformed fibrils or AD brain homogenate extracts can be performed using literature procedures (Klunk, W., et al. Uncharged thioflavin-T derivatives bind to amyloid-beta protein with high affinity and readily enter the brain. Life Sci 69, 1471-1484 (2001); Zhen, W., et al. Synthesis and amyloid binding properties of rhenium complexes: preliminary progress towards a reagent for SPECT imaging of Alzheimer's disease brain. J Med Chem 42, 2805-2815 (1999)). Prior to binding assays, the stock solution (2 μM) can be thawed. To aliquots of this stock solution, ^18F-AI-182 (also exemplified for either ^18F-AI-183 or ^18F-AI-187) can be added at various concentrations to a final concentration of 200 nM Aβ fibrils or 200 μL of AD brain extracts (20-25 μg). The aggregate-bound ^18F-AI-182 (or other analogues) can be collected on Whatman GF filters using Brandon M-24R cell harvester, washed, and counted in a γ-counter (Perkin Elmer). Inhibition constants (Ki) can be calculated as described previously (Han, H., Cho, C. & Lansbury, P. J. Technetium complexes for quantification of brain amyloid. J Am Chem Soc 118, 4506-4508 (1996)). Binding assay results can assist in evaluation of target specificity.
Binding assays of F-AI-182 with preformed Aβ1-42 aggregates were performed in PBS. […] Fluorescence was not observed using Aβ aggregates alone in PBS upon excitation at 410 nm (a negative control). […] Comparative analyses can be performed with other compounds such as AV-45, BAYER 94-9172, and AZD4694. An agent can be interacting with either of the two modestly high affinity binding sites (BS1& BS2) or recognizing an entirely new site on Aβ1-42. F-AI-182 can register different complementary binding sites in relation to Aβ-pathophysiology compared to current agents.

The nature of series [5]: Biodistribution study in normal FVB mice. The following applies: for tissue uptake at 5 min / tissue uptake at 120 min: mouse, intravenous. It is filed as in vivo, mouse. The source says: In various configurations, agents can be evaluated in part by exploring the tissue distribution and kinetics of ^18F-AI-182 or other agents in normal mice and transgenic mice. Because these heterocyclic molecules can be labeled with ^18F using the methods described herein, biodistribution in normal mice can be determined. In such investigations, BL/6 (control mice; Taconic) or APPsw^+/−/PS1 (transgenic, Taconic) mice can be anesthetized by isoflurane inhalation and injected with ^18F-AI-182 or other agents (20 μCi in 50-100 μl saline) via bolus injection through a tail vein. Animals can be sacrificed by cervical dislocation at 2, 30, 60, and 120 min post-injection (n=2-4) and data can be quantified into % ID/g as described (Sivapackiam, J., et al. Synthesis, molecular structure, and validation of metalloprobes for assessment of MDR1 P-glycoprotein-mediated functional transport. Dalton Trans 39, 5842-5850 (2010)). The brains can be removed and dissected into cerebellums and remaining whole brain fractions prior to weighing and counting to evaluate regional differences in the location of radiotracer in comparison with transgenic mice.
For in vivo imaging of Aβ plaques, the basic pharmacokinetic model in an unaffected normal brain involves high initial penetration of the agent, followed by rapid clearance due to lack of a binding target. However, in AD brains, high initial penetration can be followed by regional retention as the agent binds to Aβ thus leading to differential kinetics. To accomplish this objective, biodistribution studies of ^18F-AI-182 were performed in normal FVB mice for assessment of signal to noise ratios and clearance profiles. Brain uptake of ^18F-AI-182 was analyzed in terms of percent injected dose per gram of the brain tissue (% ID/g). […] This initial brain uptake value (5 min) in normal mice is approximately 15-fold high compared with our Aβ-targeted ^99mTc-Peptides (Harpstrite, S. E., Prior, J., Binz, K., Piwnica-Worms, D. & Sharma, V. ^99mTc-Peptide conjugates for imaging β-amyloid in the brain. ACS Med Chem Lett (2013) under review). […] Net brain uptake of ^18F-AI-182 is 1.2-fold higher than that of ^18F-AV-45. The initial data point for ^18F-AI-182 is at 5 min compared with 2 min for ^18F-AV-45.

The nature of series [6]: Stability in human serum. The series is classed as in vitro ADME. The source says: In various configurations, identified heterocyclic molecules can be assessed for metabolic stability for use in biomedical imaging applications both in vitro and in vivo using established procedures (e.g., Mathis, C., et al. Synthesis and evaluation of ^11C-labeled 6-substituted 2-arylbenzothiazoles as amyloid imaging agents. J. Med. Chem. 46, 2740-2754 (2003); Sharma, V. Radiopharmaceuticals for assessment of multidrug resistance P-glycoprotein-mediated transport activity. Bioconjug. Chem. 15, 1464-1474 (2004)). In some embodiments, ^18F-AI-182, another agent, or a combination thereof can be incubated in either serum or human serum albumin at time points corresponding to uptake in vivo (5 min to 2 h) and filtered through filters (30 kDa). Free and bound radiotracer can be calculated using previously describe methods (Bartholoma, M. D., et al. Effect of the prosthetic group on the pharmacologic properties of ^18F-labeled rhodamine B, a potential myocardial perfusion agent for positron emission tomography (PET). J Med Chem 55, 11004-11012 (2012)), and can be analyzed by radio-TLC scanner and radio-HPLC. […] Brain tissues, liver, and kidney can be removed (liver and kidney can be used to evaluate their metabolic stability in more stringent in vivo environments), sonicated, extracted and analyzed through radio-TLC and -HPLC.

For series [7] the following is noted: cited from earlier work.
Series [8] is described as follows: Literature biodistribution in normal mice (Choi et al. 2009). The series is classed as in vivo, mouse.
For series [9] the following is noted: cited from earlier work. The source holds these as a separate data set.
The conditions of series [10]: cited from earlier work; for brain uptake: normal mice.

With `CC(=C(C#N)C#N)c1ccc2cc(N(C)CC[18F])ccc2c1` [FDDNP, 2-(1-(6-[(2-[18F]fluoroethyl)(methyl)amino]-2-naphthyl)ethylidene)malononitrile], in series [1], the “affinity for BS1 and BS3 sites” value was “low affinity”.

As for `CN(C)c1ccc(/C=C/c2nc3cc(OCCF)ccc3[se]2)cn1` [F-AI-183], the “detection of Aβ plaques in human AD brain cross-sections of frontal lobe” value in [2] is given as “detection of compact Aβ plaques; also recorded: detected compact Aβ plaques”. In addition, the “staining of brain tissue sections” value in series [3] was “labeling of Aβ plaques”. For the same compound, the affinity in series [4], expressed as Kd, was 17 nM.

Regarding `CN(C)c1ccc(/C=C/c2nc3ccc(OCC[18F])cc3s2)cn1` [^18F-AI-182], the tissue uptake at 5 min turned out to be 6.76 ± 1.57 %ID/g in [5] (FVB, kidney, normal mice, 5 min, read-out: kidney uptake); 16.3 ± 1.41 %ID/g in series [5] (FVB, liver, normal mice, 5 min, read-out: liver uptake); 7.28 ± 0.46 %ID/g in series [5] (brain, normal FVB mice, 5 min post tail-vein injection, read-out: brain uptake). Moreover, the tissue uptake at 120 min in series [5] (FVB, kidney, normal mice, 120 min, read-out: kidney uptake) is 1.57 ± 0.08 %ID/g; in series [5] (FVB, liver, normal mice, 120 min, read-out: liver uptake) it was 2.71 ± 0.21 %ID/g; in series [5] (brain, normal FVB mice, 120 min post tail-vein injection, read-out: brain uptake), 1.54 ± 0.06 %ID/g. Moreover, the “penetration of brain / blood-brain barrier” value in series [5] (mice) is on record as “facile penetration of the blood-brain barrier (BBB)”. The “5 min/120 min brain clearance ratio” value in series [5] (normal mice) is 4.73. Further, the “initial brain uptake (5 min) compared with Aβ-targeted 99mTc-Peptides” value in series [5] (normal mice) is listed as “approximately 15 fold”. Further, the “net brain uptake relative to 18F-AV-45” value in series [5] (normal mice) stood at 1.2 fold. The “blood clearance faster than 18F-AV-45” value in series [5] (normal mice, 5 min to 120 min) is 25%. In addition, the “metabolism in human serum” value in series [6] (human serum) was “non-metabolized”. The “time until which non-metabolized in human serum” value in [6] (investigated highest time-point) is given as “about 30 min”.

With `CN(C)c1ncc(/C=C/c2nc3cc(OCCF)ccc3[se]2)cn1` [F-AI-187], the dissociation constant Kd (commonly the free concentration of one partner at which half of the binding sites on the other are occupied at equilibrium, for simple one-to-one binding) in series [4] was 1.58 nM.

With `[11CH3]Nc1ccc(/C=C/c2ccc(O)cc2)cc1` [SB-13, [^11C]4-N-methylamino-4′-hydroxystilbene], the “biological half-life in serum” value in [7] is on record as “low”.

Turning to `CNc1ccc(/C=C/c2ccc(OCCOCCOCC[18F])nc2)cc1` [^18F-AV-45], the “2 min/120 min brain clearance ratio” value in series [8] worked out at 4.07. In [9], the metabolism in vivo entry is listed as “facile metabolism”. For the same compound, the “biological half-life in serum” value in series [7] is on record as “low”. In addition, the kidney uptake in series [10] (2 min) is 14.19±2.34 % ID/g; in series [10] (120 min), 2.19±0.36 % ID/g. Moreover, the liver uptake in series [10] (120 min) is 4.96±0.90 % ID/g. Besides, the brain uptake in series [10] (2 min post-injection) is on record as 7.33±1.54 % ID/g; in series [10] (120 min post-injection) it was 1.80±0.07 % ID/g.

Consider `[11CH3]Nc1ccc(-c2nc3ccc(O)cc3s2)cc1` [^11C-PIB, 2-[p-(Methylamino)phenyl]-3-thia-1-aza-5-indanol], for which, in [9], the metabolism in vivo result is “facile metabolism”.

The record behind these values is patent US10335504B2, “Heterocyclic molecules for biomedical imaging and therapeutic applications” (Washington University, priority 2013, dated 2019).
